Experimental data taken from patent US20100190184A1, “SCREENING METHOD UTILIZING NOVEL SUBSTRATE C-RET FOR GAMMA-SECRETASE” (Eisai R & D Management Co., Ltd., priority 2007, published 2010).

Molecular target: T1, γ-secretase (cleavage of rat c-Ret with HA tag in HEK293 cells) (Homo sapiens, UniProt P49768)
T1 construct: endogenous in cells; host or cells: 293/EBNA-1 cell strain (HEK293), transiently transfected with rat c-Ret-HA only
Test: Analysis of c-Ret processing in c-Ret-transfected 293/EBNA-1 cell strain (Western blotting with anti-HA antibody)
Assay type: cell-based
Design: dose or concentration left out as unconfirmed
Details: Compound E added to culture broth, one day; 293/EBNA-1 (HEK293) cells transfected with rat c-Ret-HA; versus untreated sample
Protocol: Whether or not c-Ret is a substrate for γ-secretase was evaluated using HEK293 cells expressing a gene encoding c-Ret with an HA tag added to its C-terminus, in the presence of a γ-secretase inhibitor. As the γ-secretase inhibitor, (2S)-2-{[(3,5-difluorophenyl)acetyl]amino}-N-[(3S)-1-methyl-2-oxo-5-phenyl-2,3-dihydro-1H-1,4-benzodiazepin-3-yl]propanamide (hereinafter, sometimes referred to as “Compound E”) (Alexis Biochemicals) was used. 293/EBNA-1 cell strain (Invitrogen) was cultured in 6-well dishes containing 10% FBS (Hyclone)/DMEM (Invitrogen) under 5% CO2 at 37° C., followed by transfection thereinto of the gene encoding rat c-Ret with an HA tag added to its C-terminus using Lipofectamine 2000 (Invitrogen). After one day culture under the same conditions, 50 mM Compound E (Alexis Biochemicals) was added to the culture broth. Cells were cultured for another day under the same conditions. Then, the transfected HEK293 cells were collected with PBS (Sigma) and sonicated with a sonicator (Taitec VP-5S) to disrupt cells. Then, the quantity of protein was determined with Protein Assay Kit (BioRad). Samples (2 μg each) were taken from proteins obtained from Compound E-added cells and Compound E-not added cells, respectively, and subjected to SDS-PAGE, followed by Western blotting with an anti-HA antibody (Roche) (final concentration: 0.2 μg/ml). […]

C[C@H](NC(=O)Cc1cc(F)cc(F)c1)C(=O)N[C@H]1N=C(c2ccccc2)c2ccccc2N(C)C1=O [Compound E, (2S)-2-{[(3,5-difluorophenyl)acetyl]amino}-N-[(3S)-1-methyl-2-oxo-5-phenyl-2,3-dihydro-1H-1,4-benzodiazepin-3-yl]propanamide]
effect on cleavage of c-Ret by γ-secretase (c-Ret C terminal fragment band, Western blot): a band around 50 kDa (CTF) was accumulated specifically as a c-Ret undegraded product
